Where a name gives a salt, the structure may show the parent alone.
Tests used:
[1] = test system: A. baumannii NCTC 13303 producing CHDL oxacillinase [OXA-26] beta-lactamase enzymes; experiment: Time kill study against A. baumannii NCTC 13303; assay type: cell-based, Acinetobacter baumannii; conditions: sulbactam 8 mcg/ml, sodium salt of Formula (I) 4 mcg/ml, imipenem 8 mcg/ml; for Bacterial count, 0 hour: 0 hour (initial inoculum); for Bacterial count, 0 hour / Bacterial count, 2 hour / Bacterial count, 4 hour / Bacterial count, 6 hour / Bacterial count, 8 hour: alone or combined as labelled; for Effect on bacterial count (in words): throughout the duration of the study
Protocol: (§1) In a typical time kill study, the freshly grown cultures were diluted to the required cell density (initial starting inoculum) in Cation adjusted Muller Hinton broth medium (BD, USA). The antibacterial agents (either alone or in combination) at the required concentrations were added into the culture-containing medium. The samples were incubated under shaking condition (120 rpm) at 37° C. Enumeration of viable bacterial count was done every 2 hour by diluting in normal saline and plating on to the Tryptic Soya Agar plates (BD, USA). The plates were incubated for 24 hours to arrive at the viable bacterial count. […] In general, the decrease of 1 Log CFU/ml, corresponds to 90% killing of bacteria. Similarly, 2 Log CFU/ml reductions indicates to 99% killing of bacteria and 3 Log CFU/ml reductions is equal to 99.9% killing of bacteria.
(§2) The assay without any antibacterial agent was taken as control. The sodium salt of a compound of Formula (I), was used for antibacterial testing.

[2] = test system: A. baumannii NCTC 13302 producing CHDL oxacillinase [OXA-25] beta-lactamase enzymes; experiment: Time kill study against A. baumannii NCTC 13302; assay type: cell-based, Acinetobacter baumannii; conditions: sulbactam 8 mcg/ml, sodium salt of Formula (I) 4 mcg/ml, imipenem 16 mcg/ml; for Bacterial count, 0 hour: 0 hour (initial inoculum); for Bacterial count, 0 hour / Bacterial count, 2 hour / Bacterial count, 4 hour / Bacterial count, 6 hour / Bacterial count, 8 hour: alone or combined as labelled; for Effect on bacterial count (in words): throughout the duration of the study
Protocol: as §1, §2

Row | Structure (SMILES) | Bacterial count, 0 hour [1] | Bacterial count, 2 hour [1] | Bacterial count, 4 hour [1] | Bacterial count, 6 hour [1] | Bacterial count, 8 hour [1] | Effect on bacterial count (in words) [1] | Bacterial count, 0 hour [2] | Bacterial count, 2 hour [2] | Bacterial count, 4 hour [2] | Bacterial count, 6 hour [2] | Bacterial count, 8 hour [2] | Effect on bacterial count (in words) [2]
1 | CC1(C)[C@H](C(=O)O)N2C(=O)C[C@H]2S1(=O)=O [Sulbactam, sulbactam] | 6.17 Log10CFU/ml | 7.32 Log10CFU/ml | 7.56 Log10CFU/ml | 7.81 Log10CFU/ml | 7.81 Log10CFU/ml | not effective to decrease the bacterial count | 6.36 Log CFU/ml | 6.81 Log CFU/ml | 7.4 Log CFU/ml | 7.65 Log CFU/ml | 7.31 Log CFU/ml | not effective to decrease the bacterial count
2 | N#C[C@@H]1CC[C@@H]2CN1C(=O)N2OS(=O)(=O)O [Sodium salt of a compound of Formula (I), sulphuric acid, mono[(1R,2S,5R)-2-cyano-7-oxo-1,6-diazabicyclo[3.2.1]oct-6-yl] ester, sodium salt (1:1)] | 6.17 Log10CFU/ml | 7.6 Log10CFU/ml | 7.9 Log10CFU/ml | 7.95 Log10CFU/ml | 8.1 Log10CFU/ml | not effective to decrease the bacterial count | 6.36 Log CFU/ml | 7.8 Log CFU/ml | 8.0 Log CFU/ml | 8.1 Log CFU/ml | 8.15 Log CFU/ml | not effective to decrease the bacterial count
3 | C[C@@H](O)[C@H]1C(=O)N2C(C(=O)O)=C(SCCN=CN)C[C@H]12 [Imipenem, imipenem] | 6.17 Log10CFU/ml | 7.84 Log10CFU/ml | 8.13 Log10CFU/ml | 8.26 Log10CFU/ml | 8.23 Log10CFU/ml |  | 6.36 Log CFU/ml | 7.74 Log CFU/ml | 8 Log CFU/ml | 8.32 Log CFU/ml | 8.74 Log CFU/ml | 

Source: patent US20170000775A1, “PHARMACEUTICAL COMPOSITIONS COMPRISING ANTIBACTERIAL AGENTS” (priority 2014, published 2017)
